According to US5654427A, “Indolocarbazole derivatives to treat a pathological condition of the prostate” (Kyowa Hakko Kogyo Co., Ltd., priority 1995, dated 1997):
Like-named read-outs stand apart in the source and are kept apart here.

What was measured:
trkA = biological target: T1, trkA (Rattus norvegicus, UniProt P35739); experiment: inhibition of NGF-stimulated trk autophosphorylation (tyrosine phosphorylation) in PC12 cells, anti-phosphotyrosine Western blot; format: cell-based; conditions: for trk 100 nM (inhibition of phosphorylation) / trk 500 nM (inhibition of phosphorylation): NGF 50 ng/ml; for trk 500 nM (inhibition of phosphorylation): 500 nM compound; for trk 100 nM (inhibition of phosphorylation): key: +: Inhibited phosphorylation; -: Did not inhibit phosphorylation; for trk 500 nM (inhibition of phosphorylation): key: +: Inhibited phosphorylation; -: Did not inhibit phosphorylation
T1 construct: are rat pheochromocytoma cells that bear trkA; host or cells: PC12 rat pheochromocytoma cells
Protocol: Candidate compounds for the inhibition of prostate cell proliferation were selected according to their ability to inhibit the tyrosine kinase activity associated with the trks.
PC12 cells (ATCC #CRL1721) are rat pheochromocytoma cells that bear trkA and differentiate into sympathetic neurons when treated with NGF. […] Cells were incubated at 37° C. in a humidified atmosphere of 10% CO2 and 90% air. […] The cells in each culture were disrupted and cell lysates were prepared by standard techniques known to those skilled in the art. Each lysate was incubated with anti-trk antibody whereby immune complexes were formed. […] The immune complexes were collected on Protein A-Sepharose beads, separated by SDS-polyacrylamide gel electrophoresis (SDS-PAGE), and transferred to polyvinylidene difluoride (PVDF) membranes (Millipore Corp., Bedford, Mass.), using techniques well known to those skilled in the art. The membranes were incubated with anti-phosphotyrosine antibody, which binds to the tyrosine phosphorylated trks, but not to the un-phosphorylated form of trks. Proteins bound to anti-phosphotyrosine antibody were visualized with enhanced chemiluminescence (ECL, Amersham), and are shown as dark "spots" in FIG. 1.
Measurement of the autophosphorylation of trk provides a good index of trk tyrosine kinase activity, and thereby of trk stimulation.
Inhibition was indicated by the absence of a spot migrating with the trk marker shown at the left side of the figure. Partial inhibition was indicated by a spot of reduced size.

Tsu-Pr1 = experiment: growth inhibition of Tsu-Pr1 prostate cancer cells (calcein fluorescence); format: cell-based; conditions: Homo sapiens, TSU-Pr1, 72 h, read-out: Tsu-Pr1 IC50
Protocol: (§1) Throughout the experiment the Tsu-Pr1 and Du-Pro1 cells were maintained in RPMI 1640 medium (GIBCO) containing 10% fetal bovine serum (Hyclone), 2 mM glutamine, 100 U/ml penicillin, and 100 μg/ml streptomycin. The PC-3 cells were maintained in Ham's F12K medium (Irvine Scientific) containing 10% fetal bovine serum (Hyclone), 2 mM glutamine, 100 U/ml penicillin, and 100 μg/ml streptomycin. All cell lines were maintained at 37° C. in a humidified atmosphere containing 5% CO2. The DU-145 cells were maintained in minimal essential medium (Gibco), containing 10% fetal bovine serum (Hyclone), 2 mM glutamine, and no antibiotics.
(§2) Tests for growth inhibition by the candidate compounds were conducted by the following procedure. In each well of a 96-well plate (Falcon) were placed 2,500 cells in 0.1 ml of medium. The cultures were incubated overnight after which a 0.1 ml aliquot of culture medium was added to each well. […] Other control wells received medium without any K-252a derivative compounds. Incubation was continued for three days. On day three the number of cells in each well was measured using a calcein fluorescence assay (Bozyczko-Coyne et al. J. Neurosci. Meth. 50, 205-216 (1993)).
(§3) Calcein AM (Molecular Probes, Eugene, Oreg.), an analog of the viable dye fluorescein diacetate, is taken up by cells and cleaved intracellularly to fluorescent salts that are retained by intact membranes of viable cells. This method thus provides a reliable and quantitative measurement of cell survival. Calcein AM was diluted 2× in Dulbeccos phosphate buffered saline (D-PBS) to 2× the final assay concentration (6 μM) and 100 μl was added to culture wells containing 100 μl of medium. The plates were then incubated for 1 hour at 37° C. Cells were then washed 4 times with D-PBS to remove excess calcein not taken up by cells. The plate was read using a Millipore plate reading fluorimeter (Cytofluor 2350) at emission=485 nm and excitation=538 nm. After subtraction of blank values (wells containing medium but no cells), relative fluorescent values reflect a quantitative measurement of cell survival.
(§4) The number of cells in the wells containing functional derivatives was compared to the number of cells in the control wells. The concentration which inhibited cell growth by 50% was calculated and is referred to as the "IC50 ".

Du-Pro1 = experiment: growth inhibition of Du-Pro1 prostate cancer cells (calcein fluorescence); format: cell-based; conditions: Homo sapiens, 72 h, read-out: Du-Pro1 IC50
Protocol: as §1, §2, §3, §4

DU-145 = experiment: growth inhibition of DU-145 prostate cancer cells (calcein fluorescence); format: cell-based; conditions: Homo sapiens, DU-145, 72 h, read-out: DU-145 C50
Protocol: as §1, §2, §3, §4

[1] = tested on: androgen independent human prostate cancer cell lines Tsu-Pr1, DuPro-1, PC-3 and DU-145; experiment: growth inhibition of prostate cancer-derived cell lines, overall (calcein fluorescence); format: cell-based; conditions: Table 3
Protocol: as §1, §2
Calcein AM (Molecular Probes, Eugene, Oreg.), an analog of the viable dye fluorescein diacetate, is taken up by cells and cleaved intracellularly to fluorescent salts that are retained by intact membranes of viable cells. This method thus provides a reliable and quantitative measurement of cell survival. Calcein AM was diluted 2× in Dulbeccos phosphate buffered saline (D-PBS) to 2× the final assay concentration (6 μM) and 100 μl was added to culture wells containing 100 μl of medium. The plates were then incubated for 1 hour at 37° C. Cells were then washed 4 times with D-PBS to remove excess calcein not taken up by cells. The plate was read using a Millipore plate reading fluorimeter (Cytofluor 2350) at emission=485 nm and excitation=538 nm. After subtraction of blank values (wells containing medium but no cells), relative fluorescent values reflect a quantitative measurement of cell survival. […]

[2] = tested on: Dunning R-3327 AT-2.1 prostate tumor; experiment: inhibition of growth of Dunning R-3327 AT-2.1 prostate tumor in adult male Copenhagen rats; format: in vivo, rat; conditions: 3 mg/kg/day s.c.
Excerpt: The AT-2 tumor is a highly anaplastic cell line derived from the original slow-growing androgen-dependent Dunning R-3327 H rat prostate tumor (Issacs et al., Prostate 9:261-281, 1986). The AT-2 tumor model has been used to characterize other potential anti-prostatic cancer agents including linomide (Ichikawa et al., Cancer Research 52:3022-3028, 1992) and suramin (Morton et al., Prostate 17:327-336, 1990) which is undergoing evaluation in clinical trials for androgen-independentprostate cancer (Eisenberger et al., J. Natl. Can. Inst. 85: 611-621, 1993).
Experimental Protocol: Twenty-four inbred male Copenhagen rats were inoculated subcutaneously in the flank with 1×10^6 viable AT-2.1 tumor cells. All animals were allowed to develop tumors of approximately 2.7 cm^3 in size (approximately 14 days) before being randomized into three groups of 8 animals each. Group 1 received daily subcutaneous injections of vehicle alone (1 ml/kg body weight). […] All animals had their tumor sizes evaluated for a period of 16 days. Tumor volume was calculated using the formula (1×w^2)×0.5.

T1 sequence (P35739 33-799): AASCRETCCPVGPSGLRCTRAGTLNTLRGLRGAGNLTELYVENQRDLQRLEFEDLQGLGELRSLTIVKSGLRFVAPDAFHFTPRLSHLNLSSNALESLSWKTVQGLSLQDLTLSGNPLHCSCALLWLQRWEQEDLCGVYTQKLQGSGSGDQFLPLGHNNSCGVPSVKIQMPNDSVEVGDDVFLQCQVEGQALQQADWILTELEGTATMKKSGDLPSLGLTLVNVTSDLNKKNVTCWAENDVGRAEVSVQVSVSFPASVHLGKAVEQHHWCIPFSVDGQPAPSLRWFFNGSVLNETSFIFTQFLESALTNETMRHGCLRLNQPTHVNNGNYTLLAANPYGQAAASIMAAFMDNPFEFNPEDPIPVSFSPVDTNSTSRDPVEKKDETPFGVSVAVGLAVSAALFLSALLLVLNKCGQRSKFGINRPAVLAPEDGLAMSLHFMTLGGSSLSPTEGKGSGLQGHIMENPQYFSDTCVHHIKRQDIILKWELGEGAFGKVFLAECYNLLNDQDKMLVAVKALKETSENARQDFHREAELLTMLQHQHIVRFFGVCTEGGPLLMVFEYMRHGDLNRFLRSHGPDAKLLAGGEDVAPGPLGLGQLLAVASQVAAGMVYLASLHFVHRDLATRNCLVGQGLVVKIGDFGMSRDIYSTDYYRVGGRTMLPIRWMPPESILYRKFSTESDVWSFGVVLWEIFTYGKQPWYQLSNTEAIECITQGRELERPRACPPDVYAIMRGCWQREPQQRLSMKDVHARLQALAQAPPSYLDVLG

SMILES	trk 100 nM (inhibition of phosphorylation) (trkA; 100 nM compound)	trk 500 nM (inhibition of phosphorylation) (trkA)	IC50 (Tsu-Pr1; 3 days incubation)	other results
COC(=O)C1(O)CC2OC1(C)n1c3ccccc3c3c4c(c5c6cc(O)ccc6n2c5c31)C(=O)NC4 (stereo not drawn) [Compound I-5]	+			IC50 (Tsu-Pr1): 70 nM; IC50 (Du-Pro1): 60 nM; IC50 (DU-145): 80 nM; potency in inhibiting prostate cell line growth, in words [1]: most potent compounds in inhibiting growth in all four cell lines; inhibiting growth of AT-2.1 tumors ([2]; approximately): 50-60%; Tumor volume Day 0 ([2]; vehicle 2.73 ± 0.50): 2.70 ± 1.06 cm^3; Tumor volume Day 3 ([2]; vehicle 6.66 ± 1.48): 5.64 ± 1.32 cm^3; Tumor volume Day 8 ([2]; vehicle 21.0 ± 3.0): 10.7 ± 2.9 cm^3; Tumor volume Day 13 ([2]; vehicle 37.3 ± 4.0): 19.8 ± 5.6 cm^3; Tumor volume Day 16 ([2]; vehicle 58.7 ± 5.0): 24.6 ± 6.2 cm^3
C[S+]([O-])CC1(O)CC2OC1(C)n1c3ccccc3c3c4c(c5c6ccccc6n2c5c31)C(=O)NC4 (stereo not drawn) [Compound I-8]	-	+	540 nM	
CN1CC2(CC3OC2(C)n2c4ccccc4c4c5c(c6c7ccccc7n3c6c42)C(=O)NC5)OC1=O (stereo not drawn) [Compound I-15]	+		510 nM	
CC12OC(CC1(O)CSC1O[C@H](CO)[C@@H](O)[C@H](O)[C@H]1O)n1c3ccccc3c3c4c(c5c6ccccc6n2c5c31)CNC4=O (stereo partly drawn) [Compound I-20]	-	+	5700 nM	phosphorylation response (FIG. 1, spot) (trkA; 100 nM compound, NGF, Western blot FIG. 1): somewhat diminished (a smaller spot was seen)
COC(=O)C1(O)CC2OC1(C)n1c3ccccc3c3c4c(c5c6ccccc6n2c5c31)C(=O)NC4=O (stereo not drawn) [Compound I-22]	+		690 nM	
CC12OC(CC1(O)CO)n1c3ccc(Br)cc3c3c4c(c5c6cc(Br)ccc6n2c5c31)CNC4=O (stereo not drawn) [Compound I-42]	+	+	90 nM	
COC(=O)C1(O)CC2OC1(C)n1c3ccccc3c3c4c(c5c6cc(CSc7nc[nH]n7)ccc6n2c5c31)C(=O)NC4 (stereo not drawn) [Compound I-72]	-	+		
C=CCn1c2ccccc2c2c3c(c4c5ccccc5n(CC=C)c4c21)C(=O)NC3 [II-1]	-	+		
O=C1NCc2c1c1c3ccccc3n(CCCO)c1c1c2c2ccccc2n1CCCO [II-4]		+		

The next lines start with results.

trk 100 nM (inhibition of phosphorylation) (trkA; 100 nM compound)	trk 500 nM (inhibition of phosphorylation) (trkA)	IC50 (Tsu-Pr1; 3 days incubation)	SMILES	other results
+		210 nM	CN(C)CC1(O)CC2OC1(C)n1c3ccccc3c3c4c(c5c6ccccc6n2c5c31)C(=O)NC4 (stereo not drawn) [Compound I-16]	
+	+		COC(=O)C1(O)CC2OC1(C)n1c3ccccc3c3c4c(c5c6cc(CSc7nc8ccccc8[nH]7)ccc6n2c5c31)C(=O)NC4 (stereo not drawn) [Compound I-67]	
-	+		COC(=O)C1(O)CC2OC1(C)n1c3ccccc3c3c4c(c5c6cc(CSCc7ccco7)ccc6n2c5c31)C(=O)NC4 (stereo not drawn) [Compound I-68]	
+	+		COC(=O)C1(O)CC2OC1(C)n1c3ccccc3c3c4c(c5c6cc(C=NN7CCCC7)ccc6n2c5c31)C(=O)NC4 (stereo not drawn) [Compound I-69]	
+	+		COC(=O)C1(O)CC2OC1(C)n1c3ccccc3c3c4c(c5c6cc(C=NNc7ccccn7)ccc6n2c5c31)C(=O)NC4 (stereo not drawn) [Compound I-70]	
-	+		COC(=O)C1(O)CC2OC1(C)n1c3ccccc3c3c4c(c5c6cc(CSCCN(C)C)ccc6n2c5c31)C(=O)NC4 (stereo not drawn) [Compound I-71]	
+	+		COC(=O)C1(O)CC2OC1(C)n1c3ccccc3c3c4c(c5c6cc(C=NNC(=N)N)ccc6n2c5c31)C(=O)NC4 (stereo not drawn) [Compound I-73]	
+	+		COC(=O)C1(O)CC2OC1(C)n1c3ccccc3c3c4c(c5c6cc(C=NN7CCOCC7)ccc6n2c5c31)C(=O)NC4 (stereo not drawn) [Compound I-74]	
	+		COC(=O)C1(O)CC2OC1(C)n1c3ccccc3c3c4c(c5c6cc(C=NN(C)C)ccc6n2c5c31)C(=O)NC4 (stereo not drawn) [Compound I-75]	
	+		COC(=O)C1(O)CC2OC1(C)n1c3ccccc3c3c4c(c5c6cc(C=NN7CCN(C)CC7)ccc6n2c5c31)C(=O)NC4 (stereo not drawn) [Compound I-76]	
